Experiments:
Type in all cases: biochemical
[1] = target: T1, 17β-Hydroxysteroid Dehydrogenase Type 2 Enzyme (17β-HSD2) (Homo sapiens, UniProt P37059); assay: Inhibition of the 17β-hydroxysteroid dehydrogenase type 2 enzyme, 3H-testosterone conversion; conditions: inhibitor at 10 μM
T1 construct: made in house; host or cells: Sf-9 insect cells (baculovirus)
T1 sequence (P37059 1-387): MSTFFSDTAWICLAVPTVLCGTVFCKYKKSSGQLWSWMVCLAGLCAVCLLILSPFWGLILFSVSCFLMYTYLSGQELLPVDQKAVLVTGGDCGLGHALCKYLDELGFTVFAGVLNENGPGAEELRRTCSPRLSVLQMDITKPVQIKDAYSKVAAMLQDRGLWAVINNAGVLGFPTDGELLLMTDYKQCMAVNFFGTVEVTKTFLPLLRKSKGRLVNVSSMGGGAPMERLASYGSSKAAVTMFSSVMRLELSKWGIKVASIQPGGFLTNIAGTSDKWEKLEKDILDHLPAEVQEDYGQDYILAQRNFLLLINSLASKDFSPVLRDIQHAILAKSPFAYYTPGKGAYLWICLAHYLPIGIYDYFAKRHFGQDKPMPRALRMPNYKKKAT
In short: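 Recombinant human 17β-HSD2 (Sf-9/baculovirus; 105 nM) incubated with 56.25 nM ³H-testosterone and 1 mM NAD in 20 mM KH2PO4 pH 8.5, 1 mM EDTA, 1% DMSO, 30 min at RT, inhibitor 10 μM. Reaction stopped with TCA; conversion to ³H-androstenedione by radio-UPLC gives percent inhibition.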

[2] = target: T2, Recombinant human aldo-keto reductase family 1 member C2 (AKR1C2) protein (Homo sapiens, UniProt P52895); assay: Inhibition of the aldo-keto reductase family 1 member C2, 3H-dihydrotestosterone conversion; conditions: inhibitor at 10 μM
T2 construct: made in house; host or cells: Sf-9 insect cells (baculovirus)
T2 sequence (P52895 1-323): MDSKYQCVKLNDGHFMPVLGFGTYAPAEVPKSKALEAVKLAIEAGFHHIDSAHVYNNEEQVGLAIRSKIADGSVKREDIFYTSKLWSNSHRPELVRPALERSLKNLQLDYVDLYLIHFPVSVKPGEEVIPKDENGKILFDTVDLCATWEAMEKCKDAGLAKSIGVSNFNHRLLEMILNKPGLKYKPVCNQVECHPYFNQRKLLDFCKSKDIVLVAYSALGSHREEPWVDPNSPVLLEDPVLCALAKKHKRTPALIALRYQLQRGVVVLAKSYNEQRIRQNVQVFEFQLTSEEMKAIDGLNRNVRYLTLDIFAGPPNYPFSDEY
In short: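 Sf-9-expressed enzyme (13.6 nM) incubated 45 min at 37 °C in 20 mM KH2PO4 pH 7.4 with 1 mM NADPH, 6.25 nM [3H]dihydrotestosterone and 10 μM compound (1% DMSO). After TCA stop, substrate and 5α-androstane-3α,17β-diol resolved by UPLC with radio-detection; inhibition from percent conversion.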

[3] = target: T3, Recombinant human AKR1C3 (17β-HSD5) protein (Homo sapiens, UniProt P42330); assay: Inhibition of AKR1C3 (17β-hydroxysteroid dehydrogenase type 5) enzyme, fluorescence assay; conditions: inhibitor at 500 nM
T3 construct: made in house; host or cells: E. coli
T3 sequence (P42330 1-323): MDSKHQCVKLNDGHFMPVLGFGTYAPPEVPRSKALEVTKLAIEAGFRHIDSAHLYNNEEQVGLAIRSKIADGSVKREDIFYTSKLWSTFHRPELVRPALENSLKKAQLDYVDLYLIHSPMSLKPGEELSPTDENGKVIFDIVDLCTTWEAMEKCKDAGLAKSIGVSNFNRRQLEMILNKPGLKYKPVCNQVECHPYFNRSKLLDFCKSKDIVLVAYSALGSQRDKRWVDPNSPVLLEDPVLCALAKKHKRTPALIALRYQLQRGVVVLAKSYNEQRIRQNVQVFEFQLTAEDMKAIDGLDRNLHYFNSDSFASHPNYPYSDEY
In short: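 E. coli-expressed human AKR1C3 (27 nM) in 20 mM KH2PO4, 1 mM EDTA, pH 7.4, with 1 μM pyranoquinolinone ketone substrate, 1 mM NADPH and inhibitor at 500 nM, 1% DMSO, 60–120 min at RT. Fluorescent alcohol product (ex 420/em 510 nm) quantified against standards; inhibition derived from conversion percentages.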

| inhibition at 10 µM [1] | inhibition at 10 µM [2] | inhibition at 0.5 µM [3] | SMILES |
| --- | --- | --- | --- |
| 0% | 5% | 96% | N#CC(=C1CCN(C(=O)N2CCCCC2)CC1)c1ccc(Cl)cc1 [Compound 104, 2-(4-chlorophenyl)-2-(1-(piperidine-1-carbonyl)piperidin-4-ylidene)acetonitrile] |
| -2% | 24% | 98% | N#CC(=C1CCN(C(=O)N2CCn3ncnc3C2)CC1)c1ccc(Cl)s1 [Compound 168, 2-(5-chlorothiophen-2-yl)-2-(1-(5,6,7,8-tetrahydro-[1,2,4]triazolo[1,5-a]pyrazine-7-carbonyl)piperidin-4-ylidene)acetonitrile] |
| 15% | 18% | 98% | N#CC(=C1CCN(C(=O)N2CCc3nocc3C2)CC1)c1cccc(Cl)c1 [Compound 89, 2-(3-chlorophenyl)-2-(1-(4,5,6,7-tetrahydroisoxazolo[4,3-c]pyridine-5-carbonyl)piperidin-4-ylidene)acetonitrile] |
| -4% | 19% | 95% | CN(C(=O)N1CCC(=C(C#N)c2ccc(Cl)s2)CC1)C1COC1 [Compound 103, 4-((5-chlorothiophen-2-yl)(cyano)methylene)-N-methyl-N-(oxetan-3-yl)piperidine-1-carboxamide] |
| 2% | 5% | 103% | N#CC(=C1CCN(C(=O)N2CCOCC2)CC1)c1cccc2[nH]ncc12 [Compound 45, 2-(1H-indazol-4-yl)-2-(1-(morpholine-4-carbonyl)piperidin-4-ylidene)acetonitrile] |
| -7% | 32% | 99% | N#CC(=C1CCN(C(=O)N2CCn3cncc3C2)CC1)c1ccc(Cl)s1 [Compound 121, 2-(5-chlorothiophen-2-yl)-2-(1-(5,6,7,8-tetrahydroimidazo[1,5-a]pyrazine-7-carbonyl)piperidin-4-ylidene)acetonitrile] |
| 7% | 3% | 97% | N#CC(=C1CCN(C(=O)N2CCn3cncc3C2)CC1)c1ccc(OC(F)(F)F)cc1 [Compound 55, 2-(1-(5,6,7,8-tetrahydroimidazo[1,5-a]pyrazine-7-carbonyl)piperidin-4-ylidene)-2-(4-(trifluoromethoxy)phenyl)acetonitrile] |
| 8% | 4% | 99% | N#CC(=C1CCN(C(=O)N2CCn3ncnc3C2)CC1)c1ccc(C(F)(F)F)cc1 [Compound 152, 2-(1-(5,6,7,8-tetrahydro-[1,2,4]triazolo[1,5-a]pyrazine-7-carbonyl)piperidin-4-ylidene)-2-(4-(trifluoromethyl)phenyl)acetonitrile] |
| 3% | 4% | 99% | N#CC(=C1CCN(C(=O)N2CCOCC2)CC1)c1ccc(Cl)cc1 [Compound 2, 2-(4-chlorophenyl)-2-(1-(morpholine-4-carbonyl)piperidin-4-ylidene)acetonitrile] |

More lines, now with the values behind:

| SMILES | inhibition at 10 µM [1] | inhibition at 10 µM [2] | inhibition at 0.5 µM [3] |
| --- | --- | --- | --- |
| CO[C@@H]1CCN(C(=O)N2CCC(=C(C#N)c3ccc(F)cc3)CC2)C1 [Compound 7, (R)-2-(4-fluorophenyl)-2-(1-(3-methoxypyrrolidine-1-carbonyl)piperidin-4-ylidene)acetonitrile] | 1% | 9% | 95% |
| N#CC(=C1CCN(C(=O)N2CCCCC2)CC1)c1ccc(F)cc1 [Compound 3, 2-(4-fluorophenyl)-2-(1-(piperidine-1-carbonyl)piperidin-4-ylidene)acetonitrile] | 28% | 18% | 95% |
| N#CC(=C1CCN(C(=O)N2CCC(CCO)CC2)CC1)c1ccc(Cl)cc1 [Compound 131, 2-(4-chlorophenyl)-2-(1-(4-(2-hydroxyethyl)piperidine-1-carbonyl)piperidin-4-ylidene) acetonitrile] | 13% | 8% | 98% |
| N#CC(=C1CCN(C(=O)N2CCc3[nH]ncc3C2)CC1)c1ccc(F)cc1F [Compound 122, 2-(2,4-difluorophenyl)-2-(1-(4,5,6,7-tetrahydro-1H-pyrazolo[4,3-c]pyridine-5-carbonyl)piperidin-4-ylidene)acetonitrile] | 24% | 42% | 99% |
| CCN(CC)C(=O)N1CCC(=C(C#N)c2ccc(C(F)(F)F)cc2)CC1 [Compound 171, 4-(cyano(4-(trifluoromethyl)phenyl)methylene)-N,N-diethylpiperidine-1-carboxamide] | 17% | 3% | 99% |
| N#CC(=C1CCN(C(=O)N2CCc3cccnc32)CC1)c1ccc(F)cc1 [Compound 30, 2-(1-(2,3-dihydro-1H-pyrrolo[2,3-b]pyridine-1-carbonyl)piperidin-4-ylidene)-2-(4-fluorophenyl)acetonitrile] | 14% | 15% | 95% |
| N#CC(=C1CCN(C(=O)N2CCc3sccc3C2)CC1)c1ccc(F)cc1 [Compound 108, 2-(4-fluorophenyl)-2-(1-(4,5,6,7-tetrahydrothieno[3,2-c]pyridine-5-carbonyl)piperidin-4-ylidene)acetonitrile] | -11% | 21% | 98% |
| N#CC(=C1CCN(C(=O)N2CCc3[nH]ncc3C2)CC1)c1ccc(OC(F)(F)F)cc1 [Compound 54, 2-(1-(4,5,6,7-tetrahydro-1H-pyrazolo[4,3-c]pyridine-5-carbonyl)piperidin-4-ylidene)-2-(4-(trifluoromethoxy)phenyl)acetonitrile] | 20% | 15% | 99% |
| CC(=O)n1ncc2c(C(C#N)=C3CCN(C(=O)N4CCc5nocc5C4)CC3)cccc21 [Compound 93, 2-(1-acetyl-1H-indazol-4-yl)-2-(1-(4,5,6,7-tetrahydroisoxazolo[4,3-c]pyridine-5-carbonyl)piperidin-4-ylidene)acetonitrile] | 23% | 11% | 98% |
| N#CC(=C1CCN(C(=O)N2CCc3sccc3C2)CC1)c1ccc(F)c(F)c1 [Compound 35, 2-(3,4-difluorophenyl)-2-(1-(4,5,6,7-tetrahydrothieno[3,2-c]pyridine-5-carbonyl)piperidin-4-ylidene)acetonitrile] | 28% | 27% | 96% |
| CN(C(=O)N1CCC(=C(C#N)c2ccc(F)cc2)CC1)C1CCOCC1 [Compound 14, 4-(cyano(4-fluorophenyl)methylene)-N-methyl-N-(tetrahydro-2H-pyran-4-yl)piperidine-1-carboxamide] | 3% | 11% | 94% |
| N#CC(=C1CCN(C(=O)N2CCC(O)CC2)CC1)c1n[nH]c2ccccc12 [Compound 70, 2-(1-(4-hydroxypiperidine-1-carbonyl)piperidin-4-ylidene)-2-(1H-indazol-3-yl)acetonitrile] | 11% | 5% | 97% |
| CN(C)C(=O)N1CCC(=C(C#N)c2ccc(F)cc2)CC1 [Compound 16, 4-(cyano(4-fluorophenyl)methylene)-N,N-dimethylpiperidine-1-carboxamide] | 14% | 8% | 97% |

From patent US12637471B2, “Heterocyclic compounds, compositions, methods of preparation and uses thereof” (Organon R&D Finland Ltd, priority 2021, dated 2026)
